Measurements: US20230322747A1, “OXADIAZOLE HDAC6 INHIBITORS AND USES THEREOF” (Eikonizo Therapeutics, Inc., priority 2022, published 2023)

Assays:
Human HDAC6 = Human HDAC6 (Homo sapiens (Human), UniProt Q9UBN7); assay: HDAC6 enzymatic activity assay (Caliper endpoint or fluorogenic format); type: biochemical; details: for IC50: in vitro enzymatic; for Selectivity (6 v 8) (fold): ratio of HDAC8 IC50/HDAC6 IC50
Human HDAC8 = Human HDAC8 (Homo sapiens (Human), UniProt Q9BY41); assay: Caliper endpoint assay for HDAC8 enzymatic activity; type: biochemical; details: in vitro enzymatic
Sequence of Human HDAC8 (Q9BY41 whole entry): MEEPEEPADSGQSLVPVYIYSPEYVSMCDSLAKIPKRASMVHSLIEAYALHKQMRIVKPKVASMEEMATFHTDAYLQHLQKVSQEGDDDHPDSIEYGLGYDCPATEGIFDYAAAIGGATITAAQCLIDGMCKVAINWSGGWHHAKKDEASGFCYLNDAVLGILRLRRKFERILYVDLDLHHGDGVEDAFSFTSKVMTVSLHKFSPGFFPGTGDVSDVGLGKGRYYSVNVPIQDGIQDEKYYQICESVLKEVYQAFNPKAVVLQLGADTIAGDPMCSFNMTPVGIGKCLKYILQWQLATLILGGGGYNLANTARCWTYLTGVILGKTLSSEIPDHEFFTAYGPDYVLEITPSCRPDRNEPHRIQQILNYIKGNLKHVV

Sequence of Human HDAC6 (Q9UBN7 whole entry): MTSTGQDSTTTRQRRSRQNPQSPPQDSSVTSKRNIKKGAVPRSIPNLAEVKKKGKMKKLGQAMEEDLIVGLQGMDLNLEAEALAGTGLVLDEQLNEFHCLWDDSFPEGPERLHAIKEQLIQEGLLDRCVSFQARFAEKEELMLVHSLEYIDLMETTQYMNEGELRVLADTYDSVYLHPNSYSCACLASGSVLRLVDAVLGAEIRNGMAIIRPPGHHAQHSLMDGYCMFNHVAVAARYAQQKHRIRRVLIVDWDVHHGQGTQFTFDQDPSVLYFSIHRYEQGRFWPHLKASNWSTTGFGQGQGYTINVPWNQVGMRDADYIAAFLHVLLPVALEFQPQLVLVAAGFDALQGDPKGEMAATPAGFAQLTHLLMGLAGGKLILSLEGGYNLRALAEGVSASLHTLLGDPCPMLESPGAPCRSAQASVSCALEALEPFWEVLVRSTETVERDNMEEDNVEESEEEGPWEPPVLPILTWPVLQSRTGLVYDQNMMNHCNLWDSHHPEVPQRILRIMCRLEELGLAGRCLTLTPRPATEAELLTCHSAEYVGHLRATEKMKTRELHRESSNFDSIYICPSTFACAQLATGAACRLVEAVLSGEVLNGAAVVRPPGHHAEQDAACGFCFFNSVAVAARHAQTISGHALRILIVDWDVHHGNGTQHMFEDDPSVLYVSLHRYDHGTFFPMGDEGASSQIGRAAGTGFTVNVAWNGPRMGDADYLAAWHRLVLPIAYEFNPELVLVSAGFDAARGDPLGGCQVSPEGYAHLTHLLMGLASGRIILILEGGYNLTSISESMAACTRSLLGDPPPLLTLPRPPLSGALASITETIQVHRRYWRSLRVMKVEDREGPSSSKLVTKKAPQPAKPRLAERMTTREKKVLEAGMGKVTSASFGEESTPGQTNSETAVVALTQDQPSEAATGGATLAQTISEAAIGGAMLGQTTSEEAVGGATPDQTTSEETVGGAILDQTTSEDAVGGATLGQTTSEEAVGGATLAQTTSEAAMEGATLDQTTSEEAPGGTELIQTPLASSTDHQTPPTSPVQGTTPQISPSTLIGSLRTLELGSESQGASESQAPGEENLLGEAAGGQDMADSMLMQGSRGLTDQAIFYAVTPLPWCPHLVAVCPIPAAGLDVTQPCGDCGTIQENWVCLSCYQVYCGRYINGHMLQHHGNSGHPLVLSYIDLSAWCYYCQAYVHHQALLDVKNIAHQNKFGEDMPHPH

| SMILES | IC50 (Human HDAC6) [nM] | Selectivity (6 v 8) (fold) (Human HDAC6) | IC50 (Human HDAC8) [nM] |
| --- | --- | --- | --- |
| Fc1ccc(OCc2ncc(-c3nnc(C(F)F)o3)cc2F)cc1 [Compound 6, 2-(difluoromethyl)-5-(5-fluoro-6-((4-fluorophenoxy)methyl)pyridin-3-yl)-1,3,4-oxadiazole] | 1 to 100 | V (V: >1000) | > 100000 |
| Fc1ccc(OCc2ccc(-c3nnc(C(F)F)o3)cn2)c(F)c1 [Compound 5, 2-(difluoromethyl)-5-(6-((2,4-difluorophenoxy)methyl)pyridin-3-yl)-1,3,4-oxadiazole] | 1 to 100 | V (V: >1000) | > 100000 |
| Cc1nc(OCc2ccc(-c3nnc(C(F)F)o3)cn2)c2ccccc2n1 [Compound 97] | 1 to 100 | V (V: >1000) | > 100000 |
| CCn1cnc2ccc(OCc3ccc(-c4nnc(C(F)F)o4)cn3)cc21 [Compound 202] | 100 to 1000 | IV (IV: >100-1000) | > 100000 |
| FC(F)c1nnc(-c2ccc(COc3ccc4ncccc4c3)nc2)o1 [Compound 62] | 1 to 100 | V (V: >1000) | 10000 to 100000 |
| Fc1ccc(Cl)cc1OCc1ccc(-c2nnc(C(F)F)o2)cn1 [Compound 2, 2-(6-((5-chloro-2-fluorophenoxy)methyl)pyridin-3-yl)-5-(difluoromethyl)-1,3,4-oxadiazole] | 1 to 100 | V (V: >1000) | > 100000 |
| FC(F)c1nnc(-c2ccc(COc3ccc4nccnc4c3)nc2)o1 [Compound 36] | 1 to 100 | V (V: >1000) | > 100000 |
| Fc1ccc(OCc2ccc(-c3nnc(C(F)F)o3)cn2)cc1F [Compound 9, 2-(difluoromethyl)-5-(6-((3,4-difluorophenoxy)methyl)pyridin-3-yl)-1,3,4-oxadiazole] | 1 to 100 | V (V: >1000) | > 100000 |
| FC(F)c1nnc(-c2ccc(COc3cccc4cccnc34)nc2)o1 [Compound 10, 2-(difluoromethyl)-5-(6-((quinolin-8-yloxy)methyl)pyridin-3-yl)-1,3,4-oxadiazole] | 1 to 100 | V (V: >1000) | > 100000 |
| N#Cc1ccc(F)c(OCc2ccc(-c3nnc(C(F)F)o3)cn2)c1 [Compound 49] | 1 to 100 | IV (IV: >100-1000) | 10000 to 100000 |

Now from value to molecule:

| IC50 (Human HDAC6) [nM] | Selectivity (6 v 8) (fold) (Human HDAC6) | IC50 (Human HDAC8) [nM] | SMILES |
| --- | --- | --- | --- |
| 1 to 100 | V (V: >1000) | > 100000 | FC(F)c1nnc(-c2ccc(COc3cncnc3)nc2)o1 [Compound 102] |
| 100 to 1000 | V (V: >1000) | > 100000 | Fc1cnc(OCc2ccc(-c3nnc(C(F)F)o3)cn2)nc1 [Compound 106] |
| 1 to 100 | IV (IV: >100-1000) | 10000 to 100000 | Cn1cnc2cc(OCc3ccc(-c4nnc(C(F)F)o4)cn3)ccc21 [Compound 57] |
| 1 to 100 | V (V: >1000) | > 100000 | Cc1cc(OCc2ccc(-c3nnc(C(F)F)o3)cn2)ccn1 [Compound 74] |
| 1 to 100 | V (V: >1000) | > 100000 | FC(F)c1nnc(-c2ccc(COc3ccccn3)nc2)o1 [Compound 16, 2-(difluoromethyl)-5-(6-((pyridin-2-yloxy)methyl)pyridin-3-yl)-1,3,4-oxadiazole] |
| 1 to 100 | V (V: >1000) | 10000 to 100000 | Cc1noc2cccc(OCc3ccc(-c4nnc(C(F)F)o4)cn3)c12 [Compound 60] |
| 1 to 100 | V (V: >1000) | > 100000 | FC(F)c1nnc(-c2ccc(COc3cccc4ocnc34)nc2)o1 [Compound 28] |
| 100 to 1000 | V (V: >1000) | > 100000 | Cn1nccc1OCc1ccc(-c2nnc(C(F)F)o2)cn1 [Compound 67] |
